Measurements as given in PMC11187126, “Structure and dynamics of the pyroglutamylated RF-amide peptide QRFP receptor GPR103” (Nature Communications, 2024).
Read-outs that look alike come from different tables or passages of the source. No end group written: not given here.

Biological target: T1, GPR103 F11N-termA (Homo sapiens, UniProt Q96P65, F11A)
T1 construct: we used human full-length QRFPR-encoding plasmids; expressed in transfected cells; host or cells: HEK293 cells, pCAGGS vector
T1 sequence (Q96P65 1-431 F11A): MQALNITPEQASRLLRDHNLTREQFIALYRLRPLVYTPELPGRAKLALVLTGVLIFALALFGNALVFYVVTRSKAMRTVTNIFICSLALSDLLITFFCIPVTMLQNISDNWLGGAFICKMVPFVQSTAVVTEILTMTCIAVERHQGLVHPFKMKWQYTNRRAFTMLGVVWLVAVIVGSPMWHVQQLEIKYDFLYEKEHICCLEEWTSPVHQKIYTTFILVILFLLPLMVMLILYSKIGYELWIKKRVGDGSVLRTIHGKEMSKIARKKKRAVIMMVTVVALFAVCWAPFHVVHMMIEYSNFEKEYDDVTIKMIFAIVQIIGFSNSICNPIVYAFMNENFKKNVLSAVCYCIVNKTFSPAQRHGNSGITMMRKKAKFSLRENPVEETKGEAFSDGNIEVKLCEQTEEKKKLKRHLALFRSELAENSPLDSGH
Experiment: TGFα shedding assay; Exp. level WT (1:10)
Type: cell-based
Experimental: For the TGFα shedding assay and the flow cytometry analysis, we used human full-length QRFPR-encoding plasmids. Specifically, GPR103 was N-terminally modified with an HA signal sequence followed by a FLAG epitope and then a flexible linker ([…]; the FLAG epitope is underlined) and inserted into the pCAGGS vector. Plasmid encoding GPR103 mutants were generated using Quickchange Site-Directed Mutagensis kit (Agilent).
The TGFα shedding assay was performed as described previously with minor modifications. Plasmid transfection was performed in a 6-well plate with a mixture of 500 ng (per well in a 6-well plate) AP-TGFα-encoding plasmid and 200 ng GPR103-encoding plasmid. After 1-day culture, the transfected cells were harvested by trypsinization, pelleted by centrifugation at 190 × g for 5 min, and washed once with 5 mM HEPES (pH 7.4)-containing Hank’s Balanced Salt Solution (HBSS). After centrifugation, the cells were resuspended in 8 mL of the HEPES-containing HBSS. The cell suspension was seeded in a 96-well culture plate (cell plate) at a volume of 90 μL (per well hereafter) and incubated in a 37 °C incubator with 5% CO2 for 30 min. […] After spinning the cell plates at 190 × g for 2 min, 80 μL of conditioned media was transferred to an empty 96-well plate (conditioned media (CM) plate). Then, 80 μL of AP reaction solution (10 mM p-nitrophenylphosphate (p-NPP), 120 mM Tris-HCl (pH 9.5), 40 mM NaCl, and 10 mM MgCl2) was dispensed into the cell plates and the CM plates. Absorbance at 405 nm of the plates was measured using a microplate reader (SpectraMax 340 PC384, Molecular Devices) before and after 1-h incubation at room temperature. Ligand-induced AP-TGFα release was calculated by subtracting spontaneous AP-TGFα release signal from ligand-induced AP-TGFα release signal. The AP-TGFα release signals were fitted to a four-parameter sigmoidal concentration–response curve, using the Prism 10 software (GraphPad Prism). For each replicate experiment, the pEC50 parameter (negative logarithmic values of EC50 values) of the individual GPR103 mutants were normalized to that of the wild-type GPR103 performed in parallel, and resulting ∆pEC50 values were used to denote ligand response activity of the mutants. […]
Exp. le vel: WT (1:5 0)Exp. le vel: WT (1:5 0)Exp. le vel: WT (1:5 0)Exp. le vel: WT (1:2 0)Exp. le vel: WT (1:2 0)Exp. le vel: WT (1:1 0) […]
L1 4N - t e r mA F2 5N - t e r mA I 2 6N - t e r mA Y 2 9N - t e r mA C 9 82 .5 7A T10 22 .6 1A Exp . l eve l: WT (1 :5)Exp . l evel : >WT (1 :1)Exp. le vel: WT (1:2 0)Exp. le vel: WT (1:2 0)Exp. le vel: WT (1:5 0)Exp . l eve l: WT (1 :1) […]
Exp. le vel: WT (1:1 0)Exp. le vel: WT (1:2 0) C 1 1 83 .2 5AExp. le vel: WT (1:5 0)Exp. le vel: WT (1:5 0)Exp. le vel: WT (1:2 0)Exp . l eve l: WT (1 :5) […]
Exp. le vel: WT (1:5 0)Exp. le vel: WT (1:1 0)Exp. le vel: WT (1:5 0) E203ECL2AExp . l evel : >WT (1 :1)Exp. le vel: WT (1:5 0)Exp. le vel: WT (1:5 0) […]
Exp . l eve l: WT (1 :1) F28Exp. le vel: WT (1:5 0) C 2 8 56 .4 7AExp. le vel: WT (1:2 0) WExp. le vel: WT (1:2 0) F28Exp. le vel: WT (1:5 0)Exp . l evel : >WT (1 :1) […]
Exp. le vel: WT (1:5 0)Exp. le vel: WT (1:5 0) C 3 2 77 .4 8AExp . l eve l: WT (1 :5)Exp . l evel : >WT (1 :1)Exp . l evel : >WT (1 :1) […]
Suppl eme nt ary Figure 1 | Mutational analysis of GPR103. […]
mutants. Data are presented as mean values ± SEM, normally n=3-5; dots), each performed in triplicate. b-d Cell-surface expression (b) and QRFP26-in-duced activation of GPR103 (c, d) were analyzed by the flow cytometry and the TGFα shedding assay, respectively. From the concentration–response curves (a), Emax (c) and ΔpEC50 (d) values relative to the wild type were calculated. Colors in the mutant bars indicate an expression level matching to that of titrated wild type. Statistical analyses were performed using the ordinary one-way ANOVA followed by Dunnett tests with the expression-matched […]

Emax (Exp. #1): 103.83 % WT | Emax (Exp. #2): 92.88 % WT | Emax (Exp. #3): 104.15 % WT | Emax (mean, read-out: Emax): 100% | EC50 (n = 3): 178 nM | Emax (n = 3, read-out: Emax): 104 ± 3%
Substance: TSGPLGNLAEELNGYSRKKGGFSFRF-NH2 [QRFP26]
